Where “and” joins values, the source holds several entries; their conditions need not be identical. Identical values can stand only once. Entries after “also recorded” stand apart in the source; their conditions may differ. Like-named read-outs stand apart in the source and are kept apart here.
Columns and labels:
Sprague-Dawley rats [1] = conditions: for dose adequate to reduce blood glucose to the target (40-60 mg/dl): insulin mass; for Cmin (minimum blood glucose concentration) / Tmin (time to Cmin): 15 μg/animal
Source text: The first phase established a dose of the compound required to achieve a target blood glucose reduction. This target blood glucose reduction was chosen to be the minimum reduction that is clearly recognizable as different from the resting blood glucose concentration.
The second phase examined the pharmacokinetics/pharmacodynamics of the molecule when administered to rats at the selected dose over an observation time sufficient for the glucose to return to baseline.
These experiments were conducted on male adult Sprague-Dawley rats of approximately 0.30-0.40 kg. Animals were obtained pre-cannulated with a jugular vein catheter (JVC) for blood sampling and, in the case of IV administration, and additional femoral vein catheter (FVC).
Intravenous administration of compounds was made via a femoral catheter in a volume of 300 μl.
Sample Collection was performed as follows. Blood samples of approximately 0.50 mL were collected from the JVC using a 1 mL syringe at each time point. A new syringe was used for each time point along with precautions to prevent contamination and carry-over.
The glucose monitoring was conducted as follows. Approximately 20 μL of whole blood was touched to the end of the glucose test strip of 2 Glucometer Elite glucose monitors for a duplicate determination of blood glucose concentrations. If there was a discrepancy of greater than 5 mg/dl, a third reading was taken.
The sample for compound quantitation in plasma, which served as basis for the PK analysis, was collected and processed as follows. The volume of blood remaining after the glucose measurement (˜480 μL) was anticoagulated with K2 EDTA and centrifuged to recover plasma. The plasma was collected and stored at −80° C. until analysis.

Sprague-Dawley rats [2] = experiment: Glucose depression after intravenous injection of PEG-insulins (Example 23); format: in vivo, rat; conditions: for glucose depression (in vivo activity) in comparison to regular insulin: 20 μg/animal equivalent insulin mass (FIG. 8a)
Method: The API concentration in the stock solutions was determined post-dosing by UV/VIS spectroscopy. All stock solutions were prepared on the study initiation day.
Whole blood (0.5 mL) was collected from the jugular vein catheter and placed into serum separator tubes at pre-dose (2 to 0.25 hours prior to dosing) and post-dose time points. After the sample was collected, an equivalent volume of PBS was administered, the catheter lumen was filled with 100 μL of heparinized PBS, and the cannula hub was plugged with a cotton applicator tip soaked in heparinized saline.
A small amount of whole blood was placed on the glucose test strip for blood glucose determination. The remainder of the sample was separated into serum by centrifugation for 10 minutes at 13,000 rpm. The serum was drawn off into a new Eppendorf tubes. The serum samples were stored at −20° C. on dry ice until shipped, and then stored at −80° C. until analysis.
The test and control insulin-containing articles were dissolved in saline (pH 7.4) and injected as an IV bolus into Sprague-Dawley rats. Prior to administration, the rats were lightly anesthetized for approximately 3-5 minutes in a Plexiglas induction chamber by inhaled 3.0-5.0% isoflurane mixed with air. The femoral vein catheter (FVC) was used for IV drug administration and the jugular vein catheter (JVC) was used for venous blood sampling to ensure no cross-contamination occurred.
A 1 mL syringe was fitted into the cannula, and the heparinized phosphate buffered saline solution present in the catheter lumen was removed by drawing back on the syringe plunger until blood filled the hub of the syringe. The heparinized phosphate buffered saline solution and the syringe were discarded and replaced by a new 1 mL syringe containing the appropriate IV dosing volume. The IV dose was then slowly and completely administered to the animal. The cannula was immediately flushed with 300 μL of phosphate buffered saline after dose administration. Blood was withdrawn from an indwelling catheter over a three-hour period. All drug doses refer to equivalent insulin mass delivered to the animals.
This study was designed to obtain a broad sense of the activity of the compounds rather than serve as an accurate activity measurement.

rats = experiment: Glucose suppression / pulmonary absorption after intratracheal administration of PEG-insulins (Example 23); format: in vivo, rat; conditions: for glucose suppression profile compared to insulin control: 20-80 μg/animal equivalent insulin mass (FIGS. 8b, 9b, 10-12)
Source text: In the sections below, an effort is made to compare PEG-insulin preparations with respect to PEG molecular weight, PEGylation site, and chemistry. However, an accurate comparison was not always possible due to the presence of multiple PEG-insulin species in the preparations. Also, it could be that observed differences are due to differences in binding affinity to the receptor rather than absorption per se.
PEGylated insulins were examined that were all derivatized in positions B1 or B29 using the same PEG active agent (SPA). The actual synthetic routes to generate specific B1 or B29 isomers were different. Data for B1-5000-PEG-Insulin, 750-lot 2-PEG-insulin and 2K-lot 2-PEG-Insulin and 750-lot 5-PEG-insulin; their respective glucose suppression curves are shown in FIGS. 10 and 8b.
The results are illustrated in FIG. 11.
The impact of acetylation with PEGylation on insulin absorption through the lungs was evaluated. Acetylated derivatives were produced at different levels of acetylation and were all PEGylated at the same position (B1) with the same MW PEG (750 Da): 750-lot A1- and 750-lot A2-PEG-insulin (details are given in Table 2). The results are illustrated in FIG. 12.

Sprague-Dawley rats [3] = experiment: Dose determination and PK/PD after intratracheal instillation (Example 25); format: in vivo, rat; conditions: for dose adequate to reach the target nadir glucose suppression: intratracheal instillation, dose ranging leg; for Cmin (minimum blood glucose concentration) / Tmin (time to Cmin): intratracheal, 180, 240, 640 μg/animal for 2K, 3K, 5K (Table 6)
Method: A spectrometric measurement of compound concentration was also made.
Intratracheal Instillation (IT) was conducted as follows.
Sample Collection was performed as follows.
The glucose monitoring was conducted as follows.
The experimental protocol was modified for the analysis of the acetylated compounds. This resulted from the intent to use LC/MS-MS for the quantitation of compound concentrations in plasma. This analytical technique requires a larger volume of plasma to permit concentration of the sample and achieve the requisite increase in sensitivity. […] The protocol was therefore modified to increase the number of animals by two-fold and split the samples between these two cohorts.
To explore the data further, the PK profiles after IT doses were deconvoluted using IV PK parameters using the Wagner Nelson deconvolution procedure, to generate the cumulative absorption profile (FIG. 32).

beagle dogs = conditions: glucose clamp
Method: The glucose clamp technique involved the continuous infusion of a 50% glucose solution at a rate such that normal serum glucose values were maintained throughout the experiment (e.g., normal range is 80-100 mg/dl).
Glucagon was also infused to maintain normal serum physiologic concentrations. […] Blood was withdrawn from an indwelling catheter over a 10-hour period.

Sprague-Dawley rats [4] = tested on: Sprague-Dawley rats
Method: The liquid formulation was prepared in Dulbecco's phosphate buffered saline (DPBS) for IT administration. […] The dose was administered at a fixed volume of 300 μL; as a result, dosing solutions were prepared within 2 hours of administration by dilution of the stock solution.
The lowest dose that met the criteria of achieving nadir blood glucose concentrations between approximately 40 and 60 mg/dL in the first 4 hours after compound administration was chosen for the second leg of the study.
The test system included 19 pre-cannulated (jugular vein catheter (JVC)) adult male fasted (˜15-20 hours) Sprague-Dawley rats (Hilltop Lab Animals, Inc., Scottdale, Pa.). Ten animals weighing between 0.285-0.308 kg were used for the dose-ranging leg and 9 animals weighing between 0.288-0.313 kg were used for the PK/PD leg. Prior to dosing, the rats were lightly anesthetized by inhaled Isoflurane (Abbott Laboratories, Chicago, Ill.). […] Two readings of whole blood glucose concentration (mg/dL) per time point were made using a Glucometer Elite glucose monitor (Bayer Corp., Elkhart, Ind.). […] Pharmacodynamic analysis was performed using Microsoft Office Excel 2003.

[5] = rats, IT, 80 μg/animal, Group 1
[6] = rats, IT, 160 μg/animal, Group 1
[7] = rats, IT, 200 μg/animal, Group 1
[8] = rats, IT, 270 μg/animal, Group 1
[9] = rats, IT, 270 μg/animal, Group 2 (PK/PD leg)
[10] = rats, IT, 381 μg/animal, Group 1
[11] = rats, IT, 381 μg/animal, Group 1, euthanized at 4 hr

Substance: AKZO insulin: reference compound AKZO NOBEL Human Insulin [reference compound]
- time by which blood glucose was back to baseline (Sprague-Dawley rats [1]; rats, intravenous (AKZO insulin 1-6 μg/rat; PEG-B1 insulins 15 μg/rat)): ≤ 90 min
- Glucose Tmin (Sprague-Dawley rats [1]; rats, intravenous, all doses 1-6 μg/rat): 15 min
- dose adequate to reduce blood glucose to the target (40-60 mg/dl) (Sprague-Dawley rats [1]; rats, intravenous): 3 μg/rat

Substance: N^αA1,N^εB29-{3-[methoxy(ethoxy)2K]propionyl}insulin [2000-PEG-insulin]
- glucose depression (in vivo activity) in comparison to regular insulin (Sprague-Dawley rats [2]): deviations were significant

Substance: N^αA1,N^εB29-{3-[methoxy(ethoxy)550]propionyl}insulin [550-lot 1-PEG-insulin]
- glucose suppression profile compared to insulin control (rats): much of the glucose suppression activity of insulin is restored

Substance: N^αA1,N^εB29-{3-[methoxy(ethoxy)750]propionyl}insulin [750-lot 3-PEG-insulin]
- glucose suppression profile compared to insulin control (rats): prolonged systemic glucose suppression compared to the insulin control

Substance: N^αA1,N^εB29-{3-[methoxy(ethoxy)750]propionyl}insulin [750-lot 4-PEG-insulin]
- reduction of insulin activity (Sprague-Dawley rats [2]; 80 μg insulin/animal (FIG. 9a)): about 50%

Substance: N^αB1-{3-[methoxy(ethoxy)2K]propionyl}insulin [PEG2000-B1 Insulin]
- dose adequate to reach the target nadir glucose suppression (Sprague-Dawley rats [3]): 180 μg/rat
- Cmin (minimum blood glucose concentration) (Sprague-Dawley rats [3]): 38 ± 9 mg/dL
- Tmin (time to Cmin) (Sprague-Dawley rats [3]): 290 ± 171 min
- time up to which blood glucose is still suppressed (not back to baseline) (Sprague-Dawley rats [3]; intratracheal, selected dose): ≥ 9 h
- Cmin (minimum blood glucose concentration) (Sprague-Dawley rats [1]; rats, intravenous): 42 ± 13 mg/dL
- Tmin (time to Cmin) (Sprague-Dawley rats [1]; rats, intravenous): 33 ± 15 min
- Cmin (minimum blood glucose concentration) (Sprague-Dawley rats [1]; rats, intravenous, listed as PEG2000-B1): 42 mg/dL
- dose adequate to reduce blood glucose to the target (40-60 mg/dl) (Sprague-Dawley rats [1]; rats, intravenous): 15 μg/rat

Substance: N^αB1-{3-[methoxy(ethoxy)3K]propionyl}insulin [PEG3000-B1 Insulin]
- dose adequate to reach the target nadir glucose suppression (Sprague-Dawley rats [3]): 240 μg/rat
- Cmin (minimum blood glucose concentration) (Sprague-Dawley rats [3]): 45 ± 18 mg/dL
- Tmin (time to Cmin) (Sprague-Dawley rats [3]): 170 ± 96 min
- time up to which blood glucose is still suppressed (not back to baseline) (Sprague-Dawley rats [3]; intratracheal, selected dose): ≥ 9 h
- Cmin (minimum blood glucose concentration) (Sprague-Dawley rats [1]; rats, intravenous): 36 ± 11 mg/dL
- Tmin (time to Cmin) (Sprague-Dawley rats [1]; rats, intravenous): 24 ± 12 min
- Cmin (minimum blood glucose concentration) (Sprague-Dawley rats [1]; rats, intravenous, listed as PEG3000-B1): 36 mg/dL
- dose adequate to reduce blood glucose to the target (40-60 mg/dl) (Sprague-Dawley rats [1]; rats, intravenous): 15 μg/rat

Substance: N^αB1-{3-[methoxy(ethoxy)5K]propionyl}insulin [PEG5000-B1 Insulin]
- glucose depression (in vivo activity) in comparison to regular insulin (Sprague-Dawley rats [2]): smaller glucose depression in comparison to regular insulin
- time glucose remains below euglycemic levels (rats; 40 μg/animal, no data beyond 6 hours): at least 6 hours
- glucose suppression profile compared to insulin control (rats): little systemic glucose suppression compared to the insulin control
- dose adequate to reach the target nadir glucose suppression (Sprague-Dawley rats [3]): 640 μg/rat
- Cmin (minimum blood glucose concentration) (Sprague-Dawley rats [3]): 37 ± 3 mg/dL
- Tmin (time to Cmin) (Sprague-Dawley rats [3]): 480 ± 0 min
- time to reach Cmin (Tmin) (Sprague-Dawley rats [3]; intratracheal, selected dose): 8 h
- time up to which blood glucose is still suppressed (not back to baseline) (Sprague-Dawley rats [3]; intratracheal, selected dose): ≥ 16 h
- time by which plasma concentration falls below the limit of quantitation (Sprague-Dawley rats [1]; rat, in vivo, iv): ≤ 6 h
- Cmin (minimum blood glucose concentration) (Sprague-Dawley rats [1]; rats, intravenous): 42 ± 9 mg/dL
- Tmin (time to Cmin) (Sprague-Dawley rats [1]; rats, intravenous): 24 ± 8 min
- Cmin (minimum blood glucose concentration) (Sprague-Dawley rats [1]; rats, intravenous, listed as PEG5000-B1): 42 mg/dL
- dose adequate to reduce blood glucose to the target (40-60 mg/dl) (Sprague-Dawley rats [1]; rats, intravenous): 15 μg/rat

Substance: N^αB1-{3-[methoxy(ethoxy)750]propionyl}insulin [750-lot 2-PEG-insulin]
- glucose depression (in vivo activity) in comparison to regular insulin (Sprague-Dawley rats [2]): smaller glucose depression in comparison to regular insulin
- time at which glucose suppression reaches nadir (rats; 80 μg insulin equivalent): 6 h
- time of return of glucose to baseline (rats; 80 μg insulin equivalent): ≥ 12 h
- glucose suppression profile compared to insulin control (rats): prolonged glucose suppression profile; also recorded: prolonged systemic glucose suppression compared to the insulin control

Substance: N^εB29-{3-[methoxy(ethoxy)2K]propionyl}insulin [B29 2K-2-PEG-insulin]
- infused glucose required to maintain basal levels, versus insulin alone (beagle dogs; powder inhalation): required less infused glucose to maintain basal levels
- duration for which glucose infusion was necessary (beagle dogs; powder inhalation (FIG. 13a)): 420 min

Substance: N^εB29-{3-[methoxy(ethoxy)750]proprionyl}insulin [B29 750-lot 5-PEG-insulin]
- glucose suppression profile compared to insulin control (rats; listed as B29 750 analog): glucose depression profile similar to the control

Substance: di-N^αA1,N^εB29-(acetyl)-B1-{4-[methoxy(ethoxy)2K]butyryl}insulin [PEG2K-Ald-DiAc Insulin]
- hypoglycemia (<20 mg/dL blood glucose concentration) (Sprague-Dawley rats [4]; rat, in vivo): caused hypoglycemia
- Cmin, individual animals (Sprague-Dawley rats [4]; [5]): 78 mg/dL and 85 mg/dL
- Cmin, mean (Sprague-Dawley rats [4]; [5]): 81 mg/dL
- Tmin, mean (Sprague-Dawley rats [4]; [5]): 4.50 h
- Cmin, individual animals (Sprague-Dawley rats [4]; [6]): 86 mg/dL and 82 mg/dL
- Cmin, mean (Sprague-Dawley rats [4]; [6]): 84 mg/dL
- Tmin, individual animals (Sprague-Dawley rats [4]; [6]): 6 h
- Tmin, mean (Sprague-Dawley rats [4]; [6]): 6.00 h
- Cmin, individual animals (Sprague-Dawley rats [4]; [7]): 109 mg/dL and 37 mg/dL
- Cmin, mean (Sprague-Dawley rats [4]; [7]): 73 mg/dL
- Tmin, mean (Sprague-Dawley rats [4]; [7]): 3.50 h
- animals in which target glucose suppression was not achieved (Sprague-Dawley rats [4]; rats, IT, 270 μg, PK/PD leg): three out of nine
- Cmin, individual animals (Sprague-Dawley rats [4]; [8]): 31 mg/dL and 35 mg/dL
- Cmin, mean (Sprague-Dawley rats [4]; [8]): 33 mg/dL
- Tmin, individual animals (Sprague-Dawley rats [4]; [8]): 3 h and 8 h
- Tmin, mean (Sprague-Dawley rats [4]; [8]): 5.50 h
- Cmin, mean (Sprague-Dawley rats [4]; [9]): 52 mg/dL and 52 ± 29 mg/dL
- Tmin, mean (Sprague-Dawley rats [4]; [9]): 5.80 h and 5.8 ± 3.5 h
- Cmin, mean (Sprague-Dawley rats [4]; [10]): 20 mg/dL
- Tmin, mean (Sprague-Dawley rats [4]; [10]): 4.00 h
- Cmin, individual animals (Sprague-Dawley rats [4]; [11]): 20 mg/dL and 19^a mg/dL
- Tmin, individual animals (Sprague-Dawley rats [4]; [11]): 4 h
- pharmacological effect on mean blood glucose versus saline (historic data) (Sprague-Dawley rats [4]; rats, IT, 200-270 μg/animal): does have a pharmacological effect
- dose selected for the PK/PD leg (nadir blood glucose about 40-60 mg/dL) (Sprague-Dawley rats [4]; rats, IT, dose range finding leg): 270 µg

Source: patent US20110171312A1, “MODIFIED THERAPEUTIC PEPTIDES, METHODS OF THEIR PREPARATION AND USE” (Nektar Therapeutics, priority 2008, published 2011)
